In ChEMBL document CHEMBL5724696, “Autophagy assay results for EUbOPEN Chemogenomics Library” (2024):
Several values for one entry are separate records, joined by “and”; a condition that tells them apart may be missing. Identical values can stand only once.

Key:
Type in all cases: functional, Homo sapiens
[1] = tested on: TERT-RPE1; test: (§1) Here: values are normalized to the negative (DMSO; defined as 0% autophagy induction) and positive (250nM Torin1; mTOR inhibitor; defined as maximal inducer of autophagy = 100%) control compounds and represented as % of autophagy induction. […] The impact of autophagy induction on cells is complex and depends on the affected target. As such, the magnitude of a phenotype may not be equally mirrored in the %-value of autophagy induction and vice versa. The dynamics of the induction may indicate the mode of activation: e.g. activation via phosphorylation or a signaling cascade may occur fast, while activation via transcription factors may take considerably longer. […] Of note, treatment concentrations may be sub-optimal for specific compounds, leading to false negative annotations.; conditions: Culturing Media DMEM/F12 (1:1), 1 % Penicillin/Streptomycin, 10% Fetal bovin serum Add-On: No, Screening Media Control DMEM/F12 (1:1), Screening Media Samples DMEM/F12 (1:1)
[2] = tested on: U2OS; test: as §1; conditions: Culturing Media DMEM, 1 % Penicillin/Streptomycin, 10% Fetal bovin serum Add-On: No, Screening Media Control DMEM, Screening Media Samples DMEM
[3] = tested on: U2OS; test: as §1; conditions: Culturing Media DMEM, 1 % Penicillin/Streptomycin, 10% Fetal bovin serum Add-On: No, Screening Media Control DMEM, Screening Media Samples DMEM; remark: listed apart in the source
[4] = Compound Concentration 0.5 uM, Timepoint 12 hours
[5] = Compound Concentration 0.5 uM, Timepoint 24 hours
[6] = Compound Concentration 0.5 uM, Timepoint 36 hours
[7] = Compound Concentration 0.5 uM, Timepoint 60 hours
[8] = Compound Concentration 2 uM, Timepoint 12 hours
[9] = Compound Concentration 2 uM, Timepoint 24 hours
[10] = Compound Concentration 2 uM, Timepoint 36 hours
[11] = Compound Concentration 2 uM, Timepoint 60 hours
[12] = Compound Concentration 10 uM, Timepoint 12 hours
[13] = Compound Concentration 10 uM, Timepoint 24 hours
[14] = Compound Concentration 10 uM, Timepoint 36 hours
[15] = Compound Concentration 10 uM, Timepoint 60 hours

SMILES	autophagy induction [2, 4] [%]	autophagy induction [2, 5] [%]	autophagy induction [2, 6] [%]	autophagy induction [2, 7] [%]	autophagy induction [2, 8] [%]	autophagy induction [2, 9] [%]	autophagy induction [2, 10] [%]	autophagy induction [2, 11] [%]	autophagy induction [2, 12] [%]	autophagy induction [2, 13] [%]	autophagy induction [2, 14] [%]	autophagy induction [2, 15] [%]	autophagy induction [3, 4] [%]	autophagy induction [3, 5] [%]	autophagy induction [3, 6] [%]	autophagy induction [3, 7] [%]	autophagy induction [3, 8] [%]	autophagy induction [3, 9] [%]	autophagy induction [3, 10] [%]	autophagy induction [3, 11] [%]	also measured
COc1ccc(S(=O)(=O)N2c3ccc(Cl)cc3[C@](O)(c3ccccc3Cl)[C@@H]2C(=O)N2CCC[C@H]2C(N)=O)cc1OC [RELCOVAPTAN]	-0.4488	-3.182	-42.6034	-2.284	-3.799	-4.202	-60.4871	-1.266	4.624	2.3507	-58.7044	-2.271	-8.786	-9.572	-12.5258	-16.7068	-3.79	-9.305	-13.7756	-18.6617	autophagy induction ([1]; Compound Concentration 0.5 uM, Timepoint 12 hours, 12 h, 0.5 µM): -0.4521% and -5.349%; autophagy induction ([1]; Compound Concentration 0.5 uM, Timepoint 24 hours, 24 h, 0.5 µM): -0.2273% and -4.727%; autophagy induction ([1]; Compound Concentration 0.5 uM, Timepoint 36 hours, 36 h, 0.5 µM): -2.897% and -4.661%; autophagy induction ([1]; Compound Concentration 0.5 uM, Timepoint 60 hours, 60 h, 0.5 µM): -4.347% and -7.0603%; autophagy induction ([1]; Compound Concentration 2 uM, Timepoint 12 hours, 12 h, 2 µM): 0.8726% and -2.524%; autophagy induction ([1]; Compound Concentration 2 uM, Timepoint 24 hours, 24 h, 2 µM): -1.739% and -2.756%; autophagy induction ([1]; Compound Concentration 2 uM, Timepoint 36 hours, 36 h, 2 µM): -2.675% and -2.785%; autophagy induction ([1]; Compound Concentration 2 uM, Timepoint 60 hours, 60 h, 2 µM): -4.303% and -2.0726%; autophagy induction ([1]; Compound Concentration 10 uM, Timepoint 12 hours, 12 h, 10 µM): 0.7279% and 5.088%; autophagy induction ([1]; Compound Concentration 10 uM, Timepoint 24 hours, 24 h, 10 µM): 4.093% and 9.7265%; autophagy induction ([1]; Compound Concentration 10 uM, Timepoint 36 hours, 36 h, 10 µM): 6.165% and 16.6943%; autophagy induction ([1]; Compound Concentration 10 uM, Timepoint 60 hours, 60 h, 10 µM): 11.326% and 28.0498%; autophagy induction [3, 12]: -6.744%; autophagy induction [3, 13]: -13.3744%; autophagy induction [3, 14]: -5.479%; autophagy induction [3, 15]: -4.839%
CCCCN(CCCC)C(=O)CN1C[C@@H](c2ccc3c(c2)OCO3)[C@H](C(=O)O)[C@H]1c1ccc(OC)cc1	-1.434	-1.039	-0.6288	-0.1138	-9.274	-4.861	-2.29	-1.949	6.695	2.81	1.829	-0.9275	-15.0632	-6.645	-7.125	-16.2807	-9.31	-9.369	-11.2096	-4.989	autophagy induction [1, 4]: -5.689%; autophagy induction [1, 5]: -7.876%; autophagy induction [1, 6]: -10.2076%; autophagy induction [1, 7]: -16.9579%; autophagy induction [1, 8]: -2.05%; autophagy induction [1, 9]: -6.33%; autophagy induction [1, 10]: -9.375%; autophagy induction [1, 11]: -15.3533%; autophagy induction [1, 12]: 0.4134%; autophagy induction [1, 13]: 0.2558%; autophagy induction [1, 14]: -0.8322%; autophagy induction [1, 15]: -6.302%; autophagy induction [3, 12]: 9.199%; autophagy induction [3, 13]: 8.705%; autophagy induction [3, 14]: 6.119%; autophagy induction [3, 15]: 4.931%
